The source of these data is US9724351B2, “Compounds for the treatment of paramoxyvirus viral infections” (priority 2012, dated 2017).

Data set [1] is described as follows: Cytotoxicity Determination. It counts as cell-based. As to conditions: human, HEp-2 cells, without addition of virus, CCK-8 readout, bins (Table 4: greater than 100 μM; Table 5: equal to or less than 100 μM and greater than 10 μM), read-out: 50% cytotoxicity concentration (CC50). Put shortly:
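CC50 was derived from CCK-8 optical density after a 3-4 h reagent incubation. Before that, cells without virus had been treated for 5 days at 37 °C, 5% CO2 with compound at seven ½-step final concentrations from 100 μM, in duplicate wells.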

In data set [2] the test system is Respiratory Syncytial Virus (RSV) long strain (ATCC#VR-26). The data set is described as follows: RSV Antiviral Assay (CPE reduction assay). As to conditions: human respiratory syncytial virus, 120 h; HEp-2 cells infected with RSV long strain, 5 days, CCK-8 readout; bins (Table 2: less than 1 μM; Table 3: equal to or higher than 1 μM and less than 50 μM); read-out: 50% effective concentration (EC50). It is filed as cell-based. Put shortly: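 Cytopathic-effect protection measured after 5 days at 37 °C, 5% CO2 via CCK-8 dehydrogenase readout at 450 nm (630 nm reference), EC50 regressed from mean O.D. Host HEp-2 cells received RSV long strain at 100 TCID50/well; compound 9-point ⅓ series starting 100 μM or 1 μM, 1% DMSO, duplicate wells.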

Regarding `COc1cc(C(=O)NCC(=O)c2ccc(OC)c(-c3c(Cl)sc4c(F)cccc34)n2)ccc1OCCO` [Compound 2621], in data set [1], the CC50 at 5 days was over 100 µM. Moreover, in data set [2], the EC50 was under 1 µM.
On to `COc1cc(C(=O)NCC(=O)c2ccc(OC)c(-c3csc4c(F)cccc34)n2)ccc1OCCF` [Compound 2625], for which the CC50 at 5 days in data set [1] was over 100 µM. For the same molecule, the EC50 in data set [2] is under 1 µM.
In the same order, the values of `COc1cc(C(=O)NCC(=O)c2ccc(OC)c(-c3ccc(Cl)c(Cl)c3)n2)ccc1OCCF` [Compound 2627] are over 100 µM and under 1 µM.
In the same order, the values of `COc1cc(C(=O)NCC(=O)c2ccc(OC)c(-c3ccc(F)c(Cl)c3)n2)ccc1OCC1CC1` [Compound 2638] are 10 to 100 µM and under 1 µM.
In the same order, the values of `CCOc1ccc(C(=O)NCC(=O)c2ccc(OC)c(-c3ccc(F)c(Cl)c3)n2)cc1OC` [Compound 2641] are over 100 µM and under 1 µM.
Regarding `COc1ccc(C(=O)NCC(=O)c2ccc(OC)c(-c3ccc(F)c(Cl)c3)n2)cc1F` [Compound 2642], in data set [1], the CC50 at 5 days is over 100 µM. Moreover, the EC50 in data set [2] fell in the range of 1 to 50 µM.
In the same order, the values of `COc1cc(C(=O)NCC(=O)c2ccc(OC)c(-c3ccc(F)c(Cl)c3)n2)ccc1OC(F)F` [Compound 2646] are 10 to 100 µM and under 1 µM.
As for `COc1cc(C(=O)NCC(=O)c2ccc(OC)c(-c3ccc(F)c(Cl)c3)n2)ccc1OCCF` [Compound 2648], in data set [1], the CC50 at 5 days is over 100 µM. Also, the EC50 in data set [2] was under 1 µM.
In the same order, the values of `COc1cc(C(=O)NCC(=O)c2ccc(OC)c(-c3ccc(F)c(Cl)c3)n2)ccc1-n1cccn1` [Compound 2649] are 10 to 100 µM and 1 to 50 µM.
As to `COc1cc(C(=O)NCC(=O)c2ccc(OC)c(-c3ccc(F)c(Cl)c3)n2)ccc1-c1cnn(C)c1` [Compound 2651], the CC50 at 5 days in data set [1] lay within 10 to 100 µM. In addition, the EC50 in data set [2] is 1 to 50 µM.
Consider `COc1ccc(C(=O)NCC(=O)c2ccc3c(n2)-c2c(sc4c(F)cccc24)CO3)cc1OC` [Compound 2701], for which the CC50 at 5 days in data set [1] was in the range of 10 to 100 µM. The EC50 in data set [2] was 1 to 50 µM.
As for `COc1cc(C(=O)NCC(=O)c2ccc3c(n2)-c2c(sc4c(F)cccc24)CO3)ccc1OCCO` [Compound 2703], in data set [1], the CC50 at 5 days was 10 to 100 µM. Further, in data set [2], the EC50 is 1 to 50 µM.
Turning to `COc1ccc(C(=O)NCC(=O)N2CCCN(c3csc4c(F)cccc34)C2=O)cc1OC` [Compound 2800], the CC50 at 5 days in data set [1] was 10 to 100 µM. Also, the EC50 in data set [2] was in the range of 1 to 50 µM.
Take `COc1cc(C(=O)NCC(=O)N(C)C(=O)Nc2csc3c(F)cccc23)ccc1OCCO` [Compound 2802]: the CC50 at 5 days in data set [1] is over 100 µM. Further, the EC50 in data set [2] is 1 to 50 µM.
In the same order, the values of `COc1cc(C(=O)NCC(=O)N(C)C(=O)N(C)c2csc3c(F)cccc23)ccc1OCCO` [Compound 2803] are over 100 µM and 1 to 50 µM.
In the same order, the values of `COc1ccc(C(=O)N(C)NC(=O)c2cccc(-c3csc4c(F)cccc34)n2)cc1OC` [Compound 3101] are 10 to 100 µM and 1 to 50 µM.
In the same order, the values of `COc1ccc(C(=O)N(C)N(C)C(=O)c2cccc(-c3csc4c(F)cccc34)n2)cc1OC` [Compound 3103] are 10 to 100 µM and 1 to 50 µM.
With `COc1cc(C(=O)NCC(=O)c2ccc(OC)c(-c3c[s+]([O-])c4c(F)cccc34)n2)ccc1OCCO` (stereo not drawn) [Compound 3302], in data set [1], the CC50 at 5 days was 10 to 100 µM. In addition, the EC50 in data set [2] is under 1 µM.
In the same order, the values of `COc1cc(-c2csc3c(F)cccc23)nc(C(=O)CNC(=O)c2ccc(OC)c(OC)c2)n1` [Compound 3401] are over 100 µM and 1 to 50 µM.
In the same order, the values of `COc1ccc(C(=O)NCC(=O)N2CCCC(c3ccc(F)c4sccc34)=N2)cc1OC` [Compound 3500] are over 100 µM and under 1 µM.
In the same order, the values of `COc1ccc(C(=O)NCC(=O)N2CCCC(c3csc4c(F)cccc34)=N2)cc1OC` [Compound 3501] are 10 to 100 µM and under 1 µM.
